Results taken from patent US7655665B2, “Nitromethylene derivatives and their use” (East China University of Science and Technology, priority 2004, dated 2010).

Experiments:
Nilaparvata lugens = assay: Insecticidal activity against Nilaparvata lugens (planthopper) by spraying; type: in vivo; conditions: for mortality (%) (500 ppm) Nilaparvata-lugens: spraying 2 ml per tumbler, killed counted after 24 hours; for mortality (%) (500 ppm) Nilaparvata lugens: spraying 2 ml, counted after 24 hours; for mortality at 500 ppm: Nilaparvata lugens, 24 h, read-out: mortality (%) (500 ppm) Nilaparvata lugens
Experimental: (§1) Test on the insecticidal activity of Compound Nos. 1-227
Planthopper, which belongs to Homoptera and has a piercing-sucking mouthpart, is a common insect for agricultural plant. Nilaparvata lugens was tested by the way of spraying.
Test method: the test compound was exactly formulated into a solution having a certain concentration and clean water was used as a blank control. Each process was repeated for 3 tumblers (3 times). 2 ml of solution was sprayed uniformly to each tumbler by a mini manual sprayer. 10 Nilaparvata lugens were introduced to every sink 6 hours before spraying. Three series of experiments were conducted. The number of killed Nilaparvata lugens was counted after 24 hours to calculate the mortality.

Aphis craccivoral = assay: Insecticidal activity against Aphis craccivoral by immersing (dipping aphids on bean sprout); type: in vivo; conditions: for mortality (%) (500 ppm) Aphis: 23° C.; for mortality at 500 ppm: Aphis, 24 h, read-out: mortality (%) (500 ppm) Aphis
Experimental: as §1
Aphis, which belongs to Homoptera and has a piercing-sucking mouthpart, is a common insect for agricultural plant. Aphis craccivoral was tested by the way of immersing.
Test method: exactly weighed various samples were independently added to N,N-dimethylformamide to form a 10 g/L stock solution. The mixture was diluted with 0.2 mL/L aqueous Triton X-100 solution to a concentration of 500 ug/mL. After stably sucking on bean sprout, the adult aphis without wings together with bean sprout was dipped into 500 ug/mL dilution, taken out after 5 seconds, and the excess dilution was sucked out with bibulous paper and the adult aphis without wings was incubated in clean vessel at a constant temperature of 23° C. Each concentration was repeated for 3 times and the control group contained 0.2 mL/L aqueous Triton X-100 solution. The number of killed aphis was counted after 24 hours to calculate the mortality.

[1] = 500 ppm (500 ug/mL dilution), dipped 5 seconds, killed aphis counted after 24 hours
[2] = 500 ppm, immersing (dipped 5 seconds), counted after 24 hours

Structure (SMILES)	mortality (%) (500 ppm) Nilaparvata lugens (Nilaparvata lugens)	mortality (%) (500 ppm) Aphis (Aphis craccivoral; [2])	further results
CCCN=C1CCC([N+](=O)[O-])=C2N(Cc3cnc(Cl)s3)CCCN12 [Compound 225]	–	–	mortality (%) (500 ppm) Nilaparvata-lugens (Nilaparvata lugens): 78%; mortality (%) (500 ppm) Aphis (Aphis craccivoral; [1]): 35%
CCCC(C)OC1CCC([N+](=O)[O-])=C2N(CC3CCOC3)CCN21 (stereo not shown) [Compound 61]	89%	56%	–
O=[N+]([O-])C1=C2N(CC3CCOC3)CCN2C(OC2CCCCC2)CC1 (stereo not shown) [Compound 63]	6%	2%	–
COCCSC1CCC([N+](=O)[O-])=C2N(Cc3cnc(Cl)s3)CCN21 (stereo not shown) [Compound 186]	–	–	mortality (%) (500 ppm) Nilaparvata-lugens (Nilaparvata lugens): 100%; mortality (%) (500 ppm) Aphis (Aphis craccivoral; [1]): 97%
COCCOC1CCC([N+](=O)[O-])=C2N(Cc3cnc(Cl)s3)CCCN21 (stereo not shown) [Compound 97]	100%	78%	–
CCCN=C1CCC([N+](=O)[O-])=C2N(Cc3cnc(Cl)s3)CCN12 [Compound 217]	–	–	mortality (%) (500 ppm) Nilaparvata-lugens (Nilaparvata lugens): 100%; mortality (%) (500 ppm) Aphis (Aphis craccivoral; [1]): 23%
CC(C)(C)COC1CCC([N+](=O)[O-])=C2N(Cc3cnc(Cl)s3)CCN21 (racemic) [Compound 39]	35%	24%	–
CC(C)CCOC1CCC([N+](=O)[O-])=C2N(Cc3cnc(Cl)s3)CCN21 (racemic) [Compound 37]	64%	56%	–
O=[N+]([O-])C1=C2N(Cc3ccc(Cl)nc3)CCN2C(O)CC1 (stereo not shown) [Compound 1]	–	–	mortality at 500 ppm (Nilaparvata lugens): 100%; mortality at 500 ppm (Aphis craccivoral): 96%
O=C(OC1CCC([N+](=O)[O-])=C2N(Cc3cnc(Cl)s3)CCN21)C(F)(F)F (stereo not shown) [Compound 155]	90%	48%	–
CCCSC1CCC([N+](=O)[O-])=C2N(Cc3cnc(Cl)s3)CCN21 (stereo not shown) [Compound 175]	–	–	mortality (%) (500 ppm) Nilaparvata-lugens (Nilaparvata lugens): 100%; mortality (%) (500 ppm) Aphis (Aphis craccivoral; [1]): 89%
O=C(OC1CCC([N+](=O)[O-])=C2N(Cc3ccc(Cl)nc3)CCN21)c1ccccc1F (stereo not shown) [Compound 129]	34%	0%	–
CCCCCSC1CCC([N+](=O)[O-])=C2N(Cc3cnc(Cl)s3)CCN21 (stereo not shown) [Compound 182]	–	–	mortality (%) (500 ppm) Nilaparvata-lugens (Nilaparvata lugens): 87%; mortality (%) (500 ppm) Aphis (Aphis craccivoral; [1]): 67%
CC(C)CSC1CCC([N+](=O)[O-])=C2N(Cc3cnc(Cl)s3)CCN21 (stereo not shown) [Compound 179]	–	–	mortality (%) (500 ppm) Nilaparvata-lugens (Nilaparvata lugens): 56%; mortality (%) (500 ppm) Aphis (Aphis craccivoral; [1]): 12%
CS(=O)(=O)OC1CCC([N+](=O)[O-])=C2N(Cc3cnc(Cl)s3)CCN21 (stereo not shown) [Compound 156]	92%	78%	–
O=[N+]([O-])C1=C2N(Cc3ccc(Cl)nc3)CCCN2C(OCC(F)(F)F)CC1 (stereo not shown) [Compound 75]	100%	88%	–
CC(C)(C)COC1CCC([N+](=O)[O-])=C2N(CC3CCOC3)CCN21 (stereo not shown) [Compound 62]	23%	12%	–
CCCOC1CCC([N+](=O)[O-])=C2N(Cc3ccc(Cl)nc3)CCCN21 (stereo not shown) [Compound 76]	100%	100%	–
CCCCCN=C1CCC([N+](=O)[O-])=C2N(Cc3cnc(Cl)s3)CCN12 [Compound 218]	–	–	mortality (%) (500 ppm) Nilaparvata-lugens (Nilaparvata lugens): 67%; mortality (%) (500 ppm) Aphis (Aphis craccivoral; [1]): 45%
CC(C)(C)CSC1CCC([N+](=O)[O-])=C2N(Cc3cnc(Cl)s3)CCN21 (stereo not shown) [Compound 185]	–	–	mortality (%) (500 ppm) Nilaparvata-lugens (Nilaparvata lugens): 86%; mortality (%) (500 ppm) Aphis (Aphis craccivoral; [1]): 36%
O=[N+]([O-])C1=C2N(Cc3ccc(Cl)nc3)CCN2C(SC(C(F)(F)F)C(F)(F)F)CC1 (stereo not shown) [Compound 138]	98%	45%	–

Structure (SMILES)	mortality (%) (500 ppm) Nilaparvata lugens (Nilaparvata lugens)	mortality (%) (500 ppm) Aphis (Aphis craccivoral; [2])	further results
CC(C)CCSC1CCC([N+](=O)[O-])=C2N(Cc3cnc(Cl)s3)CCN21 (stereo not shown) [Compound 183]	–	–	mortality (%) (500 ppm) Nilaparvata-lugens (Nilaparvata lugens): 34%; mortality (%) (500 ppm) Aphis (Aphis craccivoral; [1]): 23%
CCCCOC1CCC([N+](=O)[O-])=C2N(CC3CCOC3)CCCN21 (stereo not shown) [Compound 107]	0%	7%	–
COCCOC1CCC([N+](=O)[O-])=C2N(Cc3ccc(Cl)nc3)CCCN21 (stereo not shown) [Compound 83]	26%	38%	–
CC(C)(OC1CCC([N+](=O)[O-])=C2N(CC3CCOC3)CCN21)C(Cl)(Cl)Cl (stereo not shown) [Compound 57]	38%	34%	–
O=[N+]([O-])C1=C2N(Cc3ccc(Cl)nc3)CCN2C(OC2CCCCC2)CC1 (racemic) [Compound 18]	67%	23%	–
O=[N+]([O-])C1=C2N(Cc3cnc(Cl)s3)CCCN2C(=NCCCl)CC1 [Compound 223]	–	–	mortality (%) (500 ppm) Nilaparvata-lugens (Nilaparvata lugens): 76%; mortality (%) (500 ppm) Aphis (Aphis craccivoral; [1]): 5%
O=[N+]([O-])C1=C2N(Cc3ccc(Cl)nc3)CCCN2C(OC(C(F)(F)F)C(F)(F)F)CC1 (stereo not shown) [Compound 78]	51%	68%	–
CC(C)(OC1CCC([N+](=O)[O-])=C2N(Cc3cnc(Cl)s3)CCN21)C(Cl)(Cl)Cl (racemic) [Compound 35]	100%	98%	–
O=[N+]([O-])C1=C2N(CC3CCOC3)CCN2C(OCCCl)CC1 (stereo not shown) [Compound 48]	0%	3%	–
O=C(OC1CCC([N+](=O)[O-])=C2N(Cc3ccc(Cl)nc3)CCN21)C(Cl)(Cl)Cl (stereo not shown) [Compound 115]	33%	0%	–
CCCCOC1CCC([N+](=O)[O-])=C2N(CC3CCOC3)CCN21 (stereo not shown) [Compound 53]	12%	9%	–
CCOCCOC1CCC([N+](=O)[O-])=C2N(Cc3ccc(Cl)nc3)CCCN21 (stereo not shown) [Compound 84]	39%	26%	–
O=C(OC1CCC([N+](=O)[O-])=C2N(Cc3cnc(Cl)s3)CCN21)c1cc(F)c(F)cc1F (stereo not shown) [Compound 166]	–	–	mortality (%) (500 ppm) Nilaparvata-lugens (Nilaparvata lugens): 45%; mortality (%) (500 ppm) Aphis (Aphis craccivoral; [1]): 0%
COCCOC1CCC([N+](=O)[O-])=C2N(CC3CCOC3)CCN21 (stereo not shown) [Compound 66]	100%	100%	–
O=C(OC1CCC([N+](=O)[O-])=C2N(Cc3cnc(Cl)s3)CCN21)c1ccc(Cl)c(Cl)c1 (stereo not shown) [Compound 170]	–	–	mortality (%) (500 ppm) Nilaparvata-lugens (Nilaparvata lugens): 0%; mortality (%) (500 ppm) Aphis (Aphis craccivoral; [1]): 2%
O=[N+]([O-])C1=C2N(CC3CCOC3)CCN2C(OCC(F)(F)F)CC1 (stereo not shown) [Compound 49]	32%	45%	–
O=[N+]([O-])C1=C2N(Cc3ccc(Cl)nc3)CCN2C(OS(=O)(=O)c2ccccc2)CC1 (stereo not shown) [Compound 119]	23%	3%	–
CC(C)CCOC1CCC([N+](=O)[O-])=C2N(CC3CCOC3)CCN21 (stereo not shown) [Compound 60]	5%	3%	–
CCOC1CCC([N+](=O)[O-])=C2N(Cc3ccc(Cl)nc3)CCN21 (stereo not shown) [Compound 3]	–	–	mortality at 500 ppm (Nilaparvata lugens): 100%; mortality at 500 ppm (Aphis craccivoral): 100%
O=C(OC1CCC([N+](=O)[O-])=C2N(Cc3cnc(Cl)s3)CCN21)c1ccccn1 (stereo not shown) [Compound 160]	8%	4%	–
